For two compounds, MIC results are on record in US5214037A, “Thioalkylthio cephalosporin derivatives” (Shionogi & Co., Ltd., priority 1990, dated 1993).

In brackets after ≈: the same amount, converted by molar mass.

Test in all cases: Antibacterial activity in vitro, minimal inhibitory concentration (two-fold agar dilution)
What all share (format): cell-based
In general terms: Agar dilution tests growth on a series of plates holding different concentrations.

Experiment [1] concerns Klebsiella pneumoniae SR1. The settings on record: unit cut off in print. On the procedure: (§1) Antibacterial activity in vitro : A solution of the test compound in 0.01N-aqueous sodium hydrogen carbonate was applied to an agar plate by two-fold dilution method and the minimal inhibitory concentrations against Gram-negative and Gram-positive bacteria were measured according to the standard method of the Japan Society of Chemotherapy.

The next experiment relates to Escherichia coli 7437. The note with it: Escherichia coli 7437, agar dilution. On the procedure:
as §1

Experiment [2] deals with Enterobacter cloacae SR233. The procedure:
as §1

The test system of experiment [3] is Haemophilus influenzae SR3508. On the procedure:
as §1

For the compound `Nc1nc(/C(=N/O)C(=O)N[C@@H]2C(=O)N3C(C(=O)O)=C(SCSc4nc[nH]n4)CS[C@H]23)cs1` [Example 7-20, 7μ-[(Z)-2-(2-aminothiazol-4-yl)-2-hydroxyiminoacetamido]-3-(1,2,4-triazol-3-yl)thiomethylthio-3-cephem-4-carboxylic acid], the MIC came to 0.05 µg/mL (≈ 0.0972 µM) in experiment [1], 0.02 µg/mL (≈ 0.0389 µM) in the experiment on Escherichia coli 7437 and 0.8 µg/mL (≈ 1.55 µM) in experiment [2].
For the compound `Cn1cc(SCSC2=C(C(=O)O)N3C(=O)[C@@H](NC(=O)/C(=N\O)c4csc(N)n4)[C@H]3SC2)nn1` [Example 7-17, 7μ-[(Z)-2-(2-aminothiazol-4-yl) -2-hydroxyiminoacetamido]-3-(1-methyl-1,2,3-triazol-4-yl)thiomethylthio-3-cephem-4-carboxylic acid], the MIC in the experiment with Escherichia coli 7437 stood at 0.02 µg/mL (≈ 0.0378 µM); in experiment [2], 0.8 µg/mL (≈ 1.51 µM); in experiment [3], 0.1 µg/mL (≈ 0.189 µM).
